According to US10106551B2, “Monothiol mucolytic agents” (PARION SCIENCES, INC., priority 2015, dated 2018):

What was measured:
[1] = target: T1, Muc5B (Homo sapiens, UniProt Q9HC84); assay: Mucin agarose gel western blot (saliva / mucus samples); format: biochemical; conditions: for reducing capacity relative to 76 (Muc5B): FIG. 3; for Muc5b reduction: FIG. 4
T1 construct: Various mucin-containing substrates (e.g. saliva, harvested HBE mucus, and disease sputum) treated with our monothiol mucolytic compounds; from tissue; host or cells: saliva; harvested HBE mucus; disease sputum
Method: (§1) Various mucin-containing substrates (e.g. saliva, harvested HBE mucus, and disease sputum) treated with our monothiol mucolytic compounds are quenched upon completion of the treatment period with a 10-fold excess of N-ethylmaleimide in order to alkylate any remaining active compound and to prevent further mucin reduction. A 10× concentrated sample loading buffer is diluted into each sample (1×TAE/5% glycerol/0.1% SDS/Bromophenol Blue). Samples ([…]) were analyzed by electrophoresis on 0.9% agarose gels using a buffer system consisting of 1×TAE/0.1% SDS. The agarose gel was soaked for 15 min in 4×SSC (0.6 M NaCl, 60 mM Tri-sodium citrate dehydrate) containing 10 mM DTT before transferring the samples from the gel onto a nitrocellulose membrane by vacuum blotter. Unreduced and reduced Muc5B were visualized on a LiCor Odyssey imaging detection system using a polyclonal antibody directed towards Muc5B.

[2] = system: IL-8; assay: IL-8 Secretion from primary HBEs (ELISA); format: cell-based, human; conditions: FIG. 6B; 10 mM, apical surface of HBE cells, 24 hours
Method: Reducing agents were made up in 50 mM Tris-HCl buffered to pH 7.5. Each compound solution (15 μL of 10 mM compound) was added to the apical surface of primary HBEs.
IL-8 secretion was measured from the basolateral HBE media 24 hours post-dose using a ThermoScientific human IL-8 ELISA kit. Samples were diluted 1:50 and then 50 μL of each dilution was added to the ELISA plate. The samples were completed in duplicate following standard reaction conditions as outlined in the kit manual. Absorbance was measured at 450 nm. A standard curve, generated from standards with known amounts of human IL-8, was used to calculate IL-8 amounts in the unknown samples. Supernatant from mucopurlent matters (SMM) purified from cystic fibrosis sputum was used as a positive control for IL-8 secretion.

[3] = DTNB assay: rate of S-S bond reduction; format: biochemical; conditions: for DTNB reduction rate: 22.5 μM reducing agent, 45 μM DTNB, 50 mM Tris-HCl
Description: Thiol-containing compounds, such as the monothiol mucolytic agents described in this patent, can react with DTNB (5,5-Dithiobis(2-nitrobenzoic acid)) resulting in the cleavage of its single S—S bond. The DTNB assay serves a dual purpose in our analysis of monothiol compounds, as it can (1) be used to determine the “active concentration” of the mucolytic compounds (what amount of the compound in a reaction is able to cleave S—S bonds) and (2) to assess the rate that the compound can cleave S—S bonds. When cleaved, the resulting compound, NTB (2-nitro-5-thiobenzoate), is a colored product that is measured spectrophotometrically at an absorbance of 412 nm (Abs412). Using the molar extinction coefficient of NTB and measured maximum Abs412, the molar amount of DTNB that reacted with our mucolytic agents can be calculated. Monothiol mucolytic compounds react at a 1:1 stoichiometric ratio with DTNB (i.e. 1 mole of NTB is produced when 1 mole of DTNB is reacted with 1 mole of a monothiol reducing agent). To define the activity concentration of a compound, a final concentration of 22.5 μM mucolytic reducing agent was combined with an excess of DTNB (100 μM) in 1 mL 50 mM Tris-HCl buffer (pH 7.5). Maximum Abs412 was measured and then utilized to calculate the activity concentration. If observed activity concentrations differed from expected activity concentrations by more than 5%, the amount of the compound added to each reaction was accordingly adjusted to kinetically test the reducing rate in the next step. To determine rate of mucolytic reducing activity, 22.5 μM active reducing agent is combined with 45 μM DTNB in 1 mL 50 mM Tris-HCl buffer over a pH range (6.0-7.5). Abs412 is recorded in real time upon addition of the compound and rates were calculated using 2nd order kinetic parameters.

[4] = Parallel Artificial Membrane Permeability (PAMPA) Assay; format: in vitro ADME; conditions: FIG. 5; 5 hours, room temperature
Method: This assay measures the permeability of small molecules across an artificial phospholipid membrane to help predict in vivo drug permeability. First, 500 μM stock solutions were made up in PBS and tested by the DTNB assay (described above) to determine compound activity concentrations. Next, 300 μL of the 500 μM compound stock solution and 200 uL PBS were added per well to the donor and acceptor plates, respectively (BD Gentest™ Pre-Coated PAMPA Plate System). The acceptor plate was then placed on top of the donor plate and allowed to incubate at room temperature for 5 hours. After incubation, the donor and acceptor plates were separated. For each reaction, samples were taken from both the acceptor and donor plates and were combined with DTNB prior to reading spectrophotometrically (maximum Abs412). For prodrug samples, 1 μL of purified esterase (porcine liver esterase; Sigma) was added per well and the samples were incubated at room temperature for 5 minutes to allow for cleavage of the pro-drug cap prior to addition of DTNB. Using the concentrations of compound identified in both the donor and acceptor plates for each sample, a compound permeability parameter was calculated following equations outlined in the BD Gentest™ Pre-Coated PAMPA Plate System Manual.

[5] = Pro-Drug DTNB assay with or without esterase; format: biochemical
Method: The present invention provides a series of mucolytic pro-drugs (see R^6=other than H) that are activated by common enzymes that are present in the extracellular milieu (e.g., nucelotidases, phosphatases, and esterases). As a proof-of-concept, the reducing kinetics of the pro-drug compound 46 in the presence or absence of an activating esterase were tested.
This assay was designed to determine whether prodrug caps added on to our monothiol mucolytic compounds can be cleaved from the molecule. If so, the outcome would be an “active” compound that is able to reduce the S—S bond in DTNB. Similar to the activity concentration version of the DTNB assay described above, monothiol prodrugs were mixed at a final concentration of 22.5 μM with excess DTNB (100 μM final) in 1 mL 50 mM Tris-HCl buffer (pH 7.5) and maximum Abs412 was measured. In the absence of a purified hydrolytic enzyme (e.g. porcine liver esterase; Sigma), the amount of DTNB cleavage observed is an indicator for stability of the cap on the prodrug compound (i.e. if the prodrug remains intact in solution the Abs412=0). Next, 5 uL of esterase (bought as an ammonium sulfate suspension that is subsequently centrifuged to isolate the esterase and then dissolved in reaction buffer prior to assaying) is combined with excess DTNB (100 μM final) and 22.5 μM pro-drug in 1 mL 50 mM Tris-HCl buffer (pH 7.5). Cleavage of the prodrug cap can be visualized in real time via DTNB cleavage at Abs412 by the esterase-liberated monothiol molecule.

[6] = system: mucus on primary human bronchial epithelial (HBE) cultures; assay: Mucus reduction on primary human bronchial epithelial (HBE) cultures, western blot; format: cell-based; conditions: FIG. 9; added to apical surface of HBE cultures
Method: as §1
Mucin reduction kinetics were assessed by western blot at the indicated times post-addition of mucolytic agents to the apical surface of HBE cultures.

[7] = target: T1, Muc5B; assay: Muc5b reduction in COPD sputum, agarose gel western blot; format: biochemical; conditions: FIG. 8; spontaneously induced sputum from a patient with COPD
Method: as §1
An important aspect of mucolytic pro-drugs is that they must be activated in mucus on the lung surface.

[8] = Elimination of inhaled 14C-labelled NAC from the lungs in animal studies; format: in vivo; conditions: inhaled or intranasal, 14C-labled NAC, administered by inhalation, animal studies (unpublished observation)

Row | SMILES | reducing capacity relative to 76 (Muc5B) [1] | IL-8 secretion [2] | Muc5b reduction relative to NAC ([1]; FIG. 2, 10 mM, 5-fold lower concentration than NAC) | membrane permeability (PAMPA) [4] | Reduction Without Esterase ([5]; 22.5 μM prodrug, 100 μM DTNB, pH 7.5, no enzyme) | Reduction With Esterase ([5]; 22.5 μM prodrug, 100 μM DTNB, pH 7.5, porcine liver esterase) | DTNB cleavage without esterase ([5]; FIG. 7 middle panel) | Muc5b reduction ([1]; 3 mM) | Muc5b reduction ([1]; 30 mM) | half-life [8] [min] | DTNB reduction rate ([3]; pH 6) [M⁻¹ s⁻¹] | reduction of salivary Muc5b compared to NAC ([1]; FIG. 2, equimolar concentrations relative to NAC (50 mM)) | DTNB reduction rate ([3]; pH 6.5) [M⁻¹ s⁻¹] | DTNB reduction rate ([3]; pH 7) [M⁻¹ s⁻¹] | DTNB reduction rate ([3]; pH 7.5) [M⁻¹ s⁻¹] | DTNB cleavage after addition of an esterase ([5]; FIG. 7 right-hand panel) | duration of mucus reduction [6] | mucin reduction kinetics [6] | Muc5b reduction in sputum [7] | DTNB cleavage ([3]; FIG. 7 left panel)
1 | NCCCC[C@@H](N)C(=O)NCCOc1ccc(CS)cc1 [Compound 69, (R)-2,6-diamino-N-(2-(4-(mercaptomethyl)phenoxy)ethyl)hexanamide] | retain the reducing capacity of 76 | did increase IL-8 secretion |  |  |  |  |  |  |  |  | 485.93 |  |  |  |  |  |  |  |  | 
2 | CC(=O)SCc1ccc(OCCN)cc1.Cl [Compound 76, S-4-(2-aminoethoxy)benzyl ethanethioate hydrochloride] |  | did not increase IL-8 secretion | greater Muc5b reduction relative to NAC | membrane permeable |  |  |  |  |  |  | 253.2 | significantly faster and more complete reduction | 654.24 | 1499 | 4633.8 |  |  |  |  | 

The next lines start with results.

Row | reducing capacity relative to 76 (Muc5B) [1] | IL-8 secretion [2] | Muc5b reduction relative to NAC ([1]; FIG. 2, 10 mM, 5-fold lower concentration than NAC) | membrane permeability (PAMPA) [4] | Reduction Without Esterase ([5]; 22.5 μM prodrug, 100 μM DTNB, pH 7.5, no enzyme) | Reduction With Esterase ([5]; 22.5 μM prodrug, 100 μM DTNB, pH 7.5, porcine liver esterase) | DTNB cleavage without esterase ([5]; FIG. 7 middle panel) | Muc5b reduction ([1]; 3 mM) | Muc5b reduction ([1]; 30 mM) | half-life [8] [min] | SMILES | DTNB reduction rate ([3]; pH 6) [M⁻¹ s⁻¹] | reduction of salivary Muc5b compared to NAC ([1]; FIG. 2, equimolar concentrations relative to NAC (50 mM)) | DTNB reduction rate ([3]; pH 6.5) [M⁻¹ s⁻¹] | DTNB reduction rate ([3]; pH 7) [M⁻¹ s⁻¹] | DTNB reduction rate ([3]; pH 7.5) [M⁻¹ s⁻¹] | DTNB cleavage after addition of an esterase ([5]; FIG. 7 right-hand panel) | duration of mucus reduction [6] | mucin reduction kinetics [6] | Muc5b reduction in sputum [7] | DTNB cleavage ([3]; FIG. 7 left panel)
3 |  |  |  | poor membrane permeability | No | Yes | does not cleave DTNB |  |  |  | CC(=O)SCc1ccc(OCCN(C[C@H](O)[C@@H](O)[C@H](O)[C@H](O)CO)C[C@H](O)[C@@H](O)[C@H](O)[C@H](O)CO)cc1 [Compound 85, S-4-(2-(bis((2S,3R,4R,5R)-2,3,4,5,6-pentahydroxyhexyl)amino)ethoxy)benzyl Ethanethioate] |  |  |  |  |  | metabolically converts 85 to 86, allowing it to hydrolyze DTNB | potentially longer duration of action | slower reduction kinetics | reduces the Muc5b, but with a delayed kinetic relative to 86 | 
4 | retain the reducing capacity of 76 | no change in IL-8 |  | poor membrane permeability |  |  |  | partial reduction | full Muc5b reduction |  | OC[C@@H](O)[C@@H](O)[C@H](O)[C@@H](O)CN(CCOc1ccc(CS)cc1)C[C@H](O)[C@@H](O)[C@H](O)[C@H](O)CO [Compound 86, (2R,2′R,3R,3′R,4R,4′R,5S,5′S)-6,6′-((2-(4-(mercaptomethyl)phenoxy)ethyl)azanediyl)bis(hexane-1,2,3,4,5-pentaol)] | 160 |  |  |  |  |  | substantially recovered 24 hours after dosing | rapid reduction of the mucus | rapidly reduced Muc5b | rapidly cleaves DTNB
5 |  |  |  |  |  |  |  |  | partial Muc5b reduction | ~20 | CC(=O)N[C@@H](CS)C(=O)O [NAC, N-acetyl cysteine, reference compound] | 10 |  | 26 | 69 | 230 |  |  |  |  | 
